Key:
PHA-activated PBMC = test: RT-PCR analysis of CTA expressed by ADHAPI-Cells/PHA-PBMC and control PHA-PBMC; format: cell-based, human; settings: 5-AZA-CdR: four pulses of 1 μM every 12 h, then 48 h culture (= ADHAPI-Cells/PHA-PBMC)
Method: (§1) Experimental conditions and primers utilized to assess CTA expression on investigated cells were as follows:
PBMC (1.5×10^6 cells/ml) were added with PHA-M (10 μg/ml) and 100 UI/ml rhIL-2, and cultured for 48 h at 37° C. in a 5% CO2 humidified atmosphere in RPMI 1640 medium supplemented with 10% heat-inactivated foetal calf serum (or in Basal Iscove's medium supplemented with 10% heat-inactivated human AB serum), 2 mM L-glutamine, 100 U/ml penicillin, 100 μg/ml streptomycin sulphate (complete medium).
(§2) PHA-activated PBMC were pulsed four times with 1 μM 5-aza-2′-deoxycytidine (5-AZA-CdR) every 12 h; then, half of the culture medium was replaced with fresh complete medium without PHA-M and cultures were allowed to proceed for additional 48 h. Then cells were utilized for experimental procedures and/or frozen under viable conditions. Control cells (PHA-PBMC) were cultured under similar experimental conditions but without pulses of 5-AZA-CdR.

PHA+PWM-activated PBMC = test: RT-PCR analysis of CTA expressed by ADHAPI-Cells/PHA+PWM-PBMC and control PHA+PWM-PBMC; format: cell-based, human; settings: 5-AZA-CdR: four pulses of 1 μM every 12 h, then 48 h culture (= ADHAPI-Cells/PHA+PWM-PBMC)
Method: as §1
PBMC (1.5×10^6 cells/ml) were added with PHA-M (10 μg/ml), PWM (3 μg/ml), 100 UI/ml rhIL-2 and cultured for 48 h at 37° C. in a 5% CO2 humidified atmosphere in Basal Iscove's medium supplemented with 10% heat-inactivated human AB serum (or with 10% heat-inactivated autologous serum), 2 mM L-glutamine, 100 U/ml penicillin, 100 μg/ml streptomycin sulphate (complete medium).
as §2, with “PHA+PWM-activated” for “PHA-activated”, “PHA or PWM” for “PHA-M”, “(PHA+PWM-PBMC)” for “(PHA-PBMC)”

[1] = test system: PWM-activated B-Lymphocytes; test: RT-PCR analysis of CTA expressed by ADHAPI-Cells/PWM-B and control PWM-B cells; format: cell-based, human; settings: 5-AZA-CdR: four pulses of 1 μM every 12 h, then 48 h culture (= ADHAPI-Cells/PWM-B)
Method: as §1
Purified B-Lymphocytes (1.5×10^6 cells/ml) were added with PWM (3 μg/ml) and cultured for 48 h at 37° C. in a 5% CO2 humidified atmosphere in Basal Iscove's medium supplemented with 10% heat-inactivated human AB serum, 2 mM L-glutamine, 100 U/ml penicillin, 100 μg/ml streptomycin sulphate.
as §2, with “PWM-activated B-Lymphocytes” for “PHA-activated PBMC”, “fresh” for “fresh complete”, “medium” for “medium without PHA-M”, “(PWM-B)” for “(PHA-PBMC)”

[2] = test system: B-EBV+ lymphoblastoid cell lines; test: RT-PCR analysis of CTA expressed by ADHAPI-Cells/B-EBV and control B-EBV cells; format: cell-based, human; settings: 5-AZA-CdR: four pulses of 1 μM every 12 h, then 48 h culture (= ADHAPI-Cells/B-EBV)
Method: B-EBV+ lymphoblastoid cell lines (7.5×10^5 cells/ml) were cultured in RPMI 1640 medium supplemented with 10% heat-inactivated foetal calf serum (or 10% heat-inactivated human AB serum) and 2 mM L-glutamine at 37° C. in a 5% CO2 humidified atmosphere, and pulsed four times with 1 μM 5-aza-2′-deoxycytidine (5-AZA-CdR) every 12 h; then, half of the culture medium was replaced with fresh medium and cultures were allowed to proceed for additional 48 h. Then cells were utilized for experimental procedures and/or frozen under viable conditions. Control cells (B-EBV cells) were cultured under similar experimental conditions but without pulses of 5-AZA-CdR.
Experimental conditions and primers utilized to assess CTA expression on investigated cells were as follows: […]

[3] = test system: NIH3T3-CD40L-activated PBMC; test: RT-PCR analysis of CTA expressed by ADHAPI-Cells/CD40L-B and control CD40L-B cells; format: cell-based, human; settings: 5-AZA-CdR: four pulses of 1 μM every 12 h, restimulation with NIH3T3-CD40L, then 48 h (= ADHAPI-Cells/CD40L-B)
Method: as §1
PBMC (2×10^6 cells/ml) were co-cultured with semiconfluent, x-ray treated (75 Gy) NIH3T3-CD40L at 37° C. in a 5% CO2 humidified atmosphere, in Basal Iscove's medium supplemented with 10% heat-inactivated human AB serum, 2 mM L-glutamine, 2 ng/ml recombinant human (rh) interleukin 4 (rhIL-4), 50 μg/ml human transferrin, 5 μg/ml rh insulin, 5.5×10^−7 M cyclosporin A (CsA), 100 U/ml penicillin, and 100 μg/ml streptomycin sulphate (complete medium). After six days of incubation, PBMC were collected, washed twice with HBSS, resuspended at 1×10^6 cells/ml in complete medium and co-cultured for additional 3 days at 37° C. in a 5% CO2 humidified atmosphere with NIH3T3-CD40L freshly prepared as described above. This procedure was repeated every 2-3 days to a maximum culture time of 16-18 days.
After 16-18 days of culture, activated PBMC were harvested and restimulated with NIH3T3-CD40L as described above; after an O/N incubation at 37° C. in a 5% CO2 humidified atmosphere, cultures were pulsed four times with 1 μM 5-aza-2′-deoxycytidine (5-AZA-CdR) every 12 h; then, cells were harvested and restimulated with NIH3T3-CD40L as described above and cultures were allowed to proceed for additional 48 h. Then cells were utilized for experimental procedures and/or frozen under viable conditions. Control cells (CD40L-B cells) were cultured under similar experimental conditions but without pulses of 5-AZA-CdR.

[4] = test system: normal and malignant lymphoid cells; settings: Shichijo S. et al Jpn. J. Cancer Res. 87, 751-756, 1996; cited from earlier work
PWM-activated PBMC = test: RT-PCR analysis of CTA expressed by ADHAPI-Cells/PWM-PBMC and control PWM-PBMC cells; format: cell-based, human; settings: 5-AZA-CdR: four pulses of 1 μM every 12 h, then 48 h culture (= ADHAPI-Cells/PWM-PBMC)
Method: as §1
PBMC (1.5×10^6 cells/ml) were added with PWM (3 μg/ml) and cultured for 48 h at 37° C. in a 5% CO2 humidified atmosphere in Basal Iscove's medium supplemented with 10% heat-inactivated human AB serum, 2 mM L-glutamine, 100 U/ml penicillin, 100 μg/ml streptomycin sulphate.
as §2, with “PWM-activated” for “PHA-activated”, “fresh” for “fresh complete”, “medium” for “medium without PHA-M”, “(PWM-PBMC)” for “(PHA-PBMC)”

## Nc1ncn([C@H]2C[C@H](O)[C@@H](CO)O2)c(=O)n1 [5-AZA-CdR, 5-aza-2′-deoxycytidine]
PHA-activated PBMC
  GAGE-1-6 expression (RT-PCR): 4/4
  MAGE-1 expression (RT-PCR): 12/12
  MAGE-2 expression (RT-PCR): 3/3
  MAGE-3 expression (RT-PCR): 12/12
  MAGE-4 expression (RT-PCR): 4/4
  NY-ESO-1 expression (RT-PCR): 6/6
  SSX-2 expression (RT-PCR): 6/6
PHA+PWM-activated PBMC
  GAGE-1-6 expression (RT-PCR): 7/7
  MAGE-1 expression (RT-PCR): 7/7
  MAGE-2 expression (RT-PCR): 7/7
  MAGE-3 expression (RT-PCR): 7/7
  MAGE-4 expression (RT-PCR): 7/7
  NY-ESO-1 expression (RT-PCR): 7/7
  SSX-2 expression (RT-PCR): 7/7
[1]
  GAGE-1-6 expression (RT-PCR): 4/4
  MAGE-1 expression (RT-PCR): 4/4
  MAGE-2 expression (RT-PCR): 4/4
  MAGE-3 expression (RT-PCR): 4/4
  MAGE-4 expression (RT-PCR): 4/4
  NY-ESO-1 expression (RT-PCR): 4/4
  SSX-2 expression (RT-PCR): 4/4
[2]
  GAGE-1-6 expression (RT-PCR): 4/4
  MAGE-1 expression (RT-PCR): 4/4
  MAGE-3 expression (RT-PCR): 4/4
  NY-ESO-1 expression (RT-PCR): 4/4
  SSX-2 expression (RT-PCR): 4/4
[3]
  GAGE-1-6 expression (RT-PCR): 14/14
  MAGE-1 expression (RT-PCR): 10/10
  MAGE-2 expression (RT-PCR): 9/10
  MAGE-3 expression (RT-PCR): 10/11
  MAGE-4 expression (RT-PCR): 11/11
  NY-ESO-1 expression (RT-PCR): 14/14
  SSX-2 expression (RT-PCR): 13/14
[4]
  induction of MAGE 1, 2, 3 and 6: induction of investigated CTA in selected samples tested
PWM-activated PBMC
  GAGE-1-6 expression (RT-PCR): 3/4
  MAGE-1 expression (RT-PCR): 4/4
  MAGE-2 expression (RT-PCR): 3/4
  MAGE-3 expression (RT-PCR): 4/4
  MAGE-4 expression (RT-PCR): 3/4
  NY-ESO-1 expression (RT-PCR): 4/4
  SSX-2 expression (RT-PCR): 3/4
